Laboratory results taken from EP0994713B1, “USE OF A 7alpha-METHYL-17alpha-ETHYNYL-ESTRANE DERIVATIVE FOR THE TREATMENT OF ATHEROSCLEROSIS” (Akzo Nobel N.V., priority 1997, dated 1998).

Key:
Assay type in all cases: in vivo, New Zealand White rabbits
[1] = Body weight at necropsy, cholesterol fed rabbit model; conditions: cholesterol diet, OVX, necropsy at 20 weeks
Method: (§1) The model is considered relevant to the human atherosclerotic process, because the cellular events occurring during the development of the atherosclerotic lesions during the atherogenic diet are similar to those observed in different stages of atherosclerotic processes in coronary arteries.
(§2) An experiment was performed with 7 groups of sexually mature, virgin female New Zealand White rabbits (Harlan, Zeist, The Netherlands), age 7-9 months and weighing approximately 3 kg (number of […] per group: 13-14). During the acclimatization period the rabbits were fed a diet of standard commercial rabbit chow LKK20 (Hope Farms, Woerden, The Netherlands). Three weeks prior to the start of the experiment the animals were anaesthetized and underwent bilateral ovariectomy (OVX) or were sham operated. After three weeks, at the start of the experiment, the rabbits were randomized over the treatment groups. In all animals de-endothelialisation of a segment of the left carotid artery was applied by using the air-drying technique (Fishman, J.A. et al., "Endothelial regeneration in the rat carotid artery and the significance of endothelial denudation in the pathogenesis of myointimal thickening", Lab. Invest. 1975, 32, 339-351; and Lafont, A. et al., "Restenosis and experimental angioplasty: Intimal, medial and adventitial changes associated with constructive remodeling", Circulation Research, 1995, 76, 996-1002)
(§3) The animals were randomly allocated into 7 experimental groups using a randomized block design. The groups were fed an atherogenic diet (commercial rabbit chow (LKK20) enriched with 0.4 grams cholesterol, 3.75 grams coconut oil and 3.75 grams peanut oil per 100 grams). One group was fed the standard rabbit chow (LKK20). Food intake was restricted to 80 grams daily.
(§4) The treatments (Table I) were daily administered orally as a tablet, prepared as in Example 1. Groups 1, 2 and 3 were on a daily placebo treatment. Groups 4-5 were treated with 7α-methyl-17α-ethynyl-17β-hydroxy-estra-5(10)-en-3-one (OD-14; tibolone; 6 or 2 mg daily); group 6 with 17β-estradiol (4 mg daily). Group 7 was on treatment with 17β-estradiol decanoate (150 µg in 1 ml arachis oil injected subcutaneously once a week).
(§5) During the experiment blood samples were drawn out of the central ear artery after sedation with Hypnorm (0.1 ml i.m.) (Janssen Pharmaceutics, Beerse, Belgium) before the daily treatment, at week 4,8,12,16 and 20, to monitor the plasma cholesterol levels and to measure, at week 17, plasma estradiol levels and plasma tibolone levels. Twenty weeks after the start of the experiment animals were anaesthetized by an i.m. injection of Hypnorm (0.5 ml/kg). After blood sampling the rabbits were killed by exsanguination and the aortic arch, uterus and carotid artery removed for further analyses.
(§6) In addition to example 2 an additional experiment was performed with two lower doses of Org OD14 and a higher dose of estradiol decanoate. […] The procedures were identical to those in example 2.
(§7) Three weeks prior to the start of the experiment the animals were ovariectomized. At the start of the experiment the carotid artery was de-endothelialised using the air-drying technique. The normal rabbit chow was replaced by the atherogenic diet except for the control group which received during the experiment the normal rabbit chow.
(§8) The treatments (table II) of group 1, 2, 3 and 4 were daily administered orally as a tablet, prepared as in example 1. The doses of Org OD14 per tablet, however, were 0.6 mg and 0.15 mg respectively. Group 5 was on treatment with 17β-estradiol decanoate (300 µg in 1 ml arachis oil injected subcutaneously once a week). Twenty weeks after the start of the experiment was ended in the same manner as described in example 2.
(§9) After 20 weeks of diet and of daily treatment, necropsy was performed to determine the accumulation of cholesterol and fatty streaks in the aortic arch and the advanced lesions in the carotid artery. […]

[2] = test system: female ovariectomized rabbits; experiment: Uterus weight (estrogenic activity), cholesterol fed rabbit model; conditions: for Uterus weight per 100 grams body weight: cholesterol diet, OVX, necropsy at 20 weeks
Method: as §1, §2, §3, §4, §5, §6, §7, §8, §9

[3] = test system: female ovariectomized rabbits; experiment: Plasma cholesterol levels, cholesterol fed rabbit model; conditions: for Mean plasma cholesterol exposure: cholesterol diet, OVX, 20 weeks; for plasma cholesterol levels (in words): Example 2: Org OD14 2 and 6 mg, E2 4 mg orally daily, E2D 150 µg s.c. weekly
Method: as §1
(§10) An experiment was performed with 7 groups of sexually mature, virgin female New Zealand White rabbits (Harlan, Zeist, The Netherlands), age 7-9 months and weighing approximately 3 kg (number of […] per group: 13-14). During the acclimatization period the rabbits were fed a diet of standard commercial rabbit chow LKK20 (Hope Farms, Woerden, The Netherlands). Three weeks prior to the start of the experiment the animals were anaesthetized and underwent bilateral ovariectomy (OVX) or were sham operated. After three weeks, at the start of the experiment, the rabbits were randomized over the treatment groups.
(§11) The animals were randomly allocated into 7 experimental groups using a randomized block design. […] One group was fed the standard rabbit chow (LKK20). Food intake was restricted to 80 grams daily.
as §4, with “Groups” for “The treatments (Table I) were daily administered orally as a tablet, prepared as in Example 1. Groups”
as §5, §7
(§12) Group 5 was on treatment with 17β-estradiol decanoate (300 µg in 1 ml arachis oil injected subcutaneously once a week).

[4] = test system: female ovariectomized rabbits; experiment: Vessel wall cholesterol measurement in the aortic arch; conditions: for Cholesterol level in aortic arch: cholesterol diet, OVX, necropsy at 20 weeks
Method: as §1, §10, §11
as §4, with “Groups” for “The treatments (Table I) were daily administered orally as a tablet, prepared as in Example 1. Groups”
as §5, §7, §12
The amount of protein in the tissue was determined by the method of Lowry.

[5] = test system: female ovariectomized rabbits; experiment: Fatty streaks in the aortic arch (Sudan Red, image analysis); conditions: cholesterol diet, OVX, necropsy at 20 weeks
Method: as §1, §2, §3, §4, §5, §6, §7, §8
The aortic arch was dissected free, opened longitudinally and fixed in 2% paraformaldehyde. The tissue was then stained for lipids using 0.3% (w/v) Sudan Red. Colour photographs were taken of all segments. […]

[6] = test system: female ovariectomized rabbits; experiment: Intimal thickening (advanced lesions) in carotid artery after de-endothelialisation; conditions: for Advanced lesions in carotid artery: intimal surface: cholesterol diet, OVX, necropsy at 20 weeks; for advanced lesion formation following mechanical de-endothelisation (in words): Example 2: Org OD14 2 and 6 mg, E2 4 mg orally daily, E2D 150 µg s.c. weekly
Method: as §1, §2, §3, §4
as §5, with “analyses. […]” for “analyses.”
The left (airdried) carotid artery was dissected and fixed in 2% paraformaldehyde containing 6.8% glucose. The right carotid artery was used as comparison. After fixation the tissue was divided in blocks with a length of 2 mm and embedded in paraffin (Paraplast plus®, Sherwood Medical Co, St. Louis, USA) using an automated tissue processor (Hypercenter XP, Shandon).
To measure intimal thickening (using image analysis) a specific staining method and a belonging image analysis application have been developed.
Measurements were performed on 2 µm transverse sections which were treated with elastase (Serva Feinbiochemica Gmbh, Heidelberg, Germany) prior to elastin staining with Lawson solution (Boom, Meppel, the Netherlands) and light green (Sigma). Subsequently sections were airdried and mounted in Pertex (Leica Gmbh, Nussloch, Germany).
For morphological study both methylene blue/Azur II and hemotoxylin/eosin stained (2 µm) transverse sections were used. Smooth muscle cells and macrophages were detected with respectively α-actin antibodies (Sigma) and anti-macrophage antibodies (RAM11, DAKO, Glostrup, Denmark). […]

[7] = test system: female ovariectomized rabbits; experiment: Overall atherosclerotic lesion formation, cholesterol fed rabbit model; conditions: Example 3: Org OD14 0.6 mg orally daily; estradiol decanoate 300 µg s.c. weekly
Method: as §1, §6, §7, §8
In example 3 we tested Org OD14 at two lower doses (0.6 and 0.15 mg orally once daily) and estradiol decanoate at a higher dose (300 µg s.c. once weekly). […]

[8] = Example 2, Group 7: 150 µg subcutaneously once a week
[9] = Example 3: 300 µg subcutaneously once weekly
[10] = Example 2, Group 6: 4 mg orally daily

CCCCCCCCCC(=O)O[C@H]1CC[C@H]2[C@@H]3CCc4cc(O)ccc4[C@H]3CC[C@]12C [Estradiol decanoate, 17β-estradiol decanoate, reference compound]
Body weight [1, 8]: 2973 ± 52 grams | Body weight [1, 9]: 3093 ± 60 grams | Uterus weight per 100 grams body weight [2, 8]: 0.37 ±0.04 per 100 grams body weight | increase of uterus weight ([2]; Example 3, text: estradiol decanoate 300 µg s.c. once weekly, versus placebo 0.054): 835% | uterus weight ([2]; Example 3, text: estradiol decanoate 300 µg s.c. once weekly, placebo 0.054): 0.505 grams per 100 grams body weigh | Uterus weight per 100 grams body weight [2, 9]: 0.505 ±0.075 per 100 grams body weight | Mean plasma cholesterol exposure [3, 8]: 30.0 ± 3.7 mmol/L/day | plasma cholesterol levels (in words) [3]: did not affect plasma cholesterol levels | Mean plasma cholesterol exposure [3, 9]: 23.0 ± 2.0 mmol/L/day | Cholesterol level in aortic arch [4, 8]: 318 ± 58 nmol/mg protein | reduction of cholesterol accumulation in the aortic arch ([4]; Example 2: 150 µg s.c. once a week, versus placebo): 46% | Cholesterol level in aortic arch [4, 9]: 225 ± 69 nmol/mg protein | Fatty streak in aortic arch [5, 8]: 28.1 ± 4.1 % of arcus covered | Fatty streak in aortic arch [5, 9]: 14.2 ± 3.2 % of arcus covered | Advanced lesions in carotid artery: intimal surface [6, 8]: 0.23 ± 0.06 * mm^2 | Histology of the lesions ([6]; Example 2, carotid artery, placebo on cholesterol diet: smooth muscle cells and foam cells): the lesions still consisted of smooth muscle cells and foam cells | advanced lesion formation following mechanical de-endothelisation (in words) [6]: reduced advanced lesion formation | Advanced lesions in carotid artery: intimal surface [6, 9]: 0.18 ± 0.02 * mm^2 | atherosclerotic lesion formation (in words) [7]: still only partially inhibited

C[C@]12CC[C@@H]3c4ccc(O)cc4CC[C@H]3[C@@H]1CCC2O (stereo partly drawn) [Estradiol, estra-1,3,5 (10)-triene-3,17-diol, reference compound]
Uterus weight per 100 grams body weight [2, 10]: 0.31 ±0.02 per 100 grams body weight | Mean plasma cholesterol exposure [3, 10]: 27.7 ± 2.8 mmol/L/day | plasma cholesterol levels (in words) [3]: did not affect plasma cholesterol levels | Cholesterol level in aortic arch [4, 10]: 521 ± 99 nmol/mg protein | cholesterol accumulation in the aortic arch (in words) ([4]; Example 2: Org OD14 2 and 6 mg, E2 4 mg orally daily): did not lead to a reduction in cholesterol accumulation | Fatty streak in aortic arch [5, 10]: 25.5 ± 5.2 % of arcus covered | Advanced lesions in carotid artery: intimal surface [6, 10]: 0.30 ± 0.06 mm^2 | advanced lesion formation following mechanical de-endothelisation (in words) [6]: had no effect on advanced lesion formation
